US5607926A, “Cephalosporin antibiotics” (Microcide Pharmaceuticals, Inc., priority 1995, dated 1997)
Converted amounts (≈) assume the structure as drawn. Structures can show the parent of a compound that is named as a salt. Where two headings read alike, the source gives them in different places.

Assays:
Format in all cases: cell-based
[1] = tested on: S. aureus 76 (Meth^R)(lac^+); assay: In vitro antibacterial evaluation, MIC by agar dilution, S. aureus 76; settings: Staphylococcus aureus, read-out: MIC
Protocol: (§1) The compounds of the invention were evaluated against several β-lactamresistant bacteria strains by determining the minimum inhibitory concentration (MIC, μg/ml) of each compound with respect to each strain. The MIC, the lowest concentration of antibiotic which inhibits growth of the test organism, was determined by the agar dilution method.
(§2) To determine the MIC for bacterial isolates, the test compound was incorporated in a series of two-fold dilutions into liquified Mueller-Hinton agar. Upon solidification, a number of different bacterial strains were spot inoculated with a replicating device onto the agar surface. […] The procedures used in these studies have been standardized by the National Committee for Clinical Laboratory Standards (NCCLS), as per the NCCLS publication entitled METHODS FOR DILUTION ANTIMICROBIAL SUSCEPTIBILITY TESTS (1991), which is incorporated herein by reference.
(§3) Aliquots of antimicrobial agents were prepared in phosphate buffered saline (PBS) at pH 7.2. Tween 20 or DMSO was used as a solubilizing vehicle as needed. Standard methods of vortexing, sonicating and gentle heat were used to facilitate solubilizing the test agent. Typically, the concentration of the stock solution was 10× that of the highest drug concentration tested. A 1.28 mg/mL stock solution was used with a subsequent highest working concentration of 128 μg/mL. Serial two-fold dilutions were done through ≤0.25 μg/mL. Each drug level was tested in duplicate. Two-fold drug dilutions were done in sterile 50 mL tubes with a final drug volume of 5 mL. Upon the addition of 45 mL of molten agar, a 10-fold dilution resulted. Two, 25 mL. plates were then poured into 15×150 mm square Petri plates with grids and allowed to harden.
(§4) A control plate with a reference drug, either cefotaxime, vancomycin or imipenem, was used as the positive growth control. Stock concentrations of reference antibiotics were prepared and frozen at -80° C. Upon preparation, the control plates were sealed and stored in the refrigerator for up to 1 week prior to use; however, imipenem control plates had to be prepared just prior to use. All test plates were used within 24 hours of preparation.
(§5) Satisfactory results were obtained where the inoculum contained about 10^4 colony forming units (cfu) ±0.5 logs. Starting with pure cultures of the test isolates on agar plates, a few isolated colonies were transferred to a tube of nutrient broth and allowed to grow 4-6 hours at 35°-36° C. to reach log-phase growth. Dropwise addition of the broth culture to PBS was done to match a 0.5 McFarland turbidity standard equal to 10^8 cfu/mL. This was further diluted ten-fold in PBS to reach a working inoculum concentration of 10^7 cfu/mL. When 1 μL of the working inoculum was applied to the agar surface a concentration of about 10^4 cfu per spot was obtained.
(§6) Disposable sterile 1 μL loops were used to inoculate test plates, with each isolate in a designated grid on the agar plate. An alternate method of inoculation involved the use of a replica plater, a device with 48 steel pins allowing the simultaneous inoculation of multiple isolates. After the spots had dried, the plates were incubated at 35°-36° C. for 16-20 hours. Endpoints were assessed as the minimum inhibitory concentration (MIC) of antimicrobial agent.

E. coli ATCC 25922 = assay: In vitro antibacterial evaluation, MIC by agar dilution, E. coli ATCC 25922; settings: Escherichia coli, ATCC25922, read-out: MIC
Protocol: as §1, §2, §3, §4, §5, §6

S. haemolyticus (Meth^R) = assay: In vitro antibacterial evaluation, MIC by agar dilution, S. haemolyticus; settings: Staphylococcus haemolyticus, read-out: MIC
Protocol: as §1, §2, §3, §4, §5, §6

E. faecalis ATCC 29212 = assay: In vitro antibacterial evaluation, MIC by agar dilution, E. faecalis ATCC 29212; settings: Enterococcus faecalis, ATCC29212; E. faecalis ATCC 29212; read-out: MIC
Protocol: as §1, §2, §3, §4, §5, §6

[2] = tested on: S. aureus Col8A (Meth^S)(lac^-); assay: In vitro antibacterial evaluation, MIC by agar dilution, S. aureus Col8A; settings: Staphylococcus aureus
Protocol: as §1, §2, §3, §4, §5, §6
The novel agents of this invention are notable for their enhanced activity against S. aureus Col and Enterococci (E. faecium and E. faecalis). The S. aureus Col strain is a high-level PBP2a producer, whereas S. aureus Col 8A, its isogenic partner, lacks PBP2a. […] Thus, the compounds of the present invention are effective against PBP2a-producing bacteria.

E. faecium ATCC 35667 = assay: In vitro antibacterial evaluation, MIC by agar dilution, E. faecium ATCC 35667; settings: Enterococcus faecium, ATCC35667, read-out: MIC
Protocol: as §1, §2, §3, §4, §5, §6

P. aeruginosa ATCC 27853 = assay: In vitro antibacterial evaluation, MIC by agar dilution, P. aeruginosa ATCC 27853; settings: Pseudomonas aeruginosa, ATCC27853, read-out: MIC
Protocol: as §1, §2, §3, §4, §5, §6

S. aureus ATCC 29213 = assay: In vitro antibacterial evaluation, MIC by agar dilution, S. aureus ATCC 29213; settings: Staphylococcus aureus, ATCC29213
Protocol: as §1, §2, §3, §4, §5, §6

[3] = S. aureus ATCC 29213, read-out: MIC

Row | Structure (SMILES) | MIC [1] | MIC (E. coli ATCC 25922) | MIC (S. haemolyticus (Meth^R)) | MIC (E. faecalis ATCC 29212) | MIC [2] | MIC (E. faecium ATCC 35667) | MIC (P. aeruginosa ATCC 27853) | MIC (S. aureus ATCC 29213) | MIC (S. aureus ATCC 29213; [3])
1 | O=C(Cc1ccccc1)N[C@@H]1C(=O)N2C(C(=O)O)=C(Sc3ccnn3-c3ccccn3)CS[C@H]12 [Cmpd 105, (7R)-7-[(Phenylacetyl)amino]-3-(1-N-(pyridin-2-yl)pyrazol-5-ylthio)-3-cephem-4-carboxylic acid] | 16 µg/mL (≈ 32.4 µM) | > 32 µg/mL | 32 µg/mL (≈ 64.8 µM) | 1 µg/mL (≈ 2.03 µM) | 0.25 µg/mL (≈ 0.507 µM) | 2 µg/mL (≈ 4.05 µM) | > 32 µg/mL | 0.25 µg/mL (≈ 0.507 µM) | 
2 | O=C(Cc1ccccc1)N[C@@H]1C(=O)N2C(C(=O)O)=C(Sc3ccnn3-c3ccc(F)cc3)CS[C@H]12 [Cmpd 123, (7R)-7-[(Phenylacetyl)amino]-3-(1-N-(4-fluorophenyl)pyrazol-5-ylthio)-3-cephem-4-carboxylic acid] | 8 µg/mL (≈ 15.7 µM) | > 32 µg/mL | 16 µg/mL (≈ 31.3 µM) | 2 µg/mL (≈ 3.92 µM) | ≤ 0.06 µg/mL | 4 µg/mL (≈ 7.83 µM) | > 32 µg/mL |  | 0.06 µg/mL (≈ 0.118 µM)
3 | N=C(N)NCc1ccccc1SC1=C(C(=O)O)N2C(=O)[C@@H](NC(=O)Cc3ccccc3)[C@H]2SC1 [Cmpd 128, (7R)-7-[(Phenylacetyl)amino]-3-(2-guanidiniummethylphenylthio)-3-cephem-4-carboxylate, inner salt] | 16 µg/mL | > 32 µg/mL |  | 2 µg/mL | ≤ 0.06 µg/mL | 2 µg/mL | > 32 µg/mL |  | ≤ 0.06 µg/mL
4 | N=C(N)SCc1ccccc1SC1=C(C(=O)O)N2C(=O)[C@@H](NC(=O)/C(=N\O)c3ccccc3)[C@H]2SC1 [Cmpd 136, (7R)-7-[(Z)-2-(Phenyl)-2-(hydroxyimino)acetamido]-3-(2-isothiouroniummethylphenylthio)-3-cephem-4-carboxylate, inner salt] | 4 µg/mL | > 32 µg/mL | 4 µg/mL | 0.5 µg/mL |  | 1 µg/mL | > 32 µg/mL |  | 0.125 µg/mL
5 | N=C(N)SCc1ccccc1SC1=C(C(=O)O)N2C(=O)[C@@H](NC(=O)Cc3ccc(O)cc3)[C@H]2SC1 [Cmpd 99, (7R)-7-[((4-Hydroxyphenyl)acetyl)amino]-3-(2-isothiouroniummethylphenylthio)-3-cephem-4-carboxylic acid, inner salt] | 16 µg/mL | > 32 µg/mL | 16 µg/mL | 1 µg/mL |  | 1 µg/mL | > 32 µg/mL |  | 0.125 µg/mL
6 | O=C(O)C1=C(Sc2ccnn2-c2ccccc2)CS[C@@H]2[C@H](NC(=O)C(=NO)c3ccco3)C(=O)N12 [Cmpd 121, (7R)-7-[2-(2-furyl)-2-(hydroxyimino)acetamido]-3-(1-N-phenylpyrazol-5-ylthio)-3-cephem-4-carboxylic acid] | 8 µg/mL (≈ 15.6 µM) | > 32 µg/mL | 16 µg/mL (≈ 31.3 µM) | 0.5 to 1 µg/mL (≈ 0.977 to 1.95 µM) | 0.5 µg/mL (≈ 0.977 µM) | 2 µg/mL (≈ 3.91 µM) | > 32 µg/mL |  | 0.5 µg/mL (≈ 0.977 µM)
7 | NCc1ccccc1CC(=O)N[C@@H]1C(=O)N2C(C(=O)O)=C(Sc3ccnn3-c3ccccc3)CS[C@H]12 [Cmpd 96, (7R)-7-[((2-aminomethylphenyl)acetyl)amino]-3-(1-N-phenylpyrazol-5-ylthio)-3-cephem-4-carboxylic acid] | 16 µg/mL (≈ 30.7 µM) | > 32 µg/mL | 16 µg/mL (≈ 30.7 µM) | 1 µg/mL (≈ 1.92 µM) | 0.5 µg/mL (≈ 0.959 µM) | 4 µg/mL (≈ 7.67 µM) | > 32 µg/mL |  | 0.25 µg/mL (≈ 0.479 µM)
8 | O=C(Cc1ccccc1)N[C@@H]1C(=O)N2C(C(=O)O)=C(Sc3ccccc3-n3cccn3)CS[C@H]12 [Cmpd 132, (7R)-7-[(Phenylacetyl)amino]-3-(2-(pyrazol-1-yl)phenylthio)-3-cephem-4-carboxylic acid] | 32 µg/mL (≈ 65 µM) | > 32 µg/mL | > 32 µg/mL | 4 µg/mL (≈ 8.12 µM) | 0.25 µg/mL (≈ 0.508 µM) | 4 µg/mL (≈ 8.12 µM) | > 32 µg/mL |  | 0.125 µg/mL (≈ 0.254 µM)
9 | CSCC(=O)N[C@@H]1C(=O)N2C(C(=O)O)=C(Sc3ccccc3CNC(=N)N)CS[C@H]12 [Cmpd 135, (7R)-7-[(Methylthioacetyl)amino]-3-(2-guanidiniummethylphenylthio)-3-cephem-4-carboxylate, inner salt] | 16 µg/mL | > 32 µg/mL | 32 µg/mL | 2 to 4 µg/mL | ≤ 0.06 µg/mL | 2 to 4 µg/mL | > 32 µg/mL |  | 0.125 µg/mL
10 | Nc1nc(/C(=N/OCCF)C(=O)N[C@@H]2C(=O)N3C(C(=O)O)=C(Sc4ccnn4-c4ccccc4)CS[C@H]23)c(Cl)s1 [Cmpd 98, (7R)-7-[(Z)-2-(2-amino-5-chlorothiazol-4-yl)-2-(2-fluoroethyloxyimino)acetamido]-3-(1-N-phenylpyrazol-5-ylthio)-3-cephem-4-carboxylic acid] | 8 µg/mL (≈ 12.8 µM) | 8 µg/mL (≈ 12.8 µM) | 8 µg/mL (≈ 12.8 µM) | 1 µg/mL (≈ 1.6 µM) |  | 4 µg/mL (≈ 6.41 µM) | 16 µg/mL (≈ 25.6 µM) |  | 0.5 µg/mL (≈ 0.801 µM)
11 | COc1cccc(-n2nccc2SC2=C(C(=O)O)N3C(=O)[C@@H](NC(=O)Cc4ccccc4)[C@H]3SC2)c1 [Cmpd 117, (7R)-7-[(Phenylacetyl)amino]-3-(1-N-(3-methoxyphenyl)pyrazol-5-ylthio)-3-cephem-4-carboxylic acid] | 16 µg/mL (≈ 30.6 µM) | > 32 µg/mL | 32 µg/mL (≈ 61.2 µM) | 2 µg/mL (≈ 3.83 µM) | 0.125 µg/mL (≈ 0.239 µM) | 1 µg/mL (≈ 1.91 µM) | > 32 µg/mL |  | 0.25 µg/mL (≈ 0.478 µM)
12 | O=C(COc1ccccc1)N[C@@H]1C(=O)N2C(C(=O)O)=C(Sc3ccnn3-c3ccccc3)CS[C@H]12 [Cmpd 112, (7R)-7-[(phenyloxyacetyl)amino]-3-(1-N-phenylpyrazol-5-ylthio) -3-cephem-4-carboxylic acid] | 16 µg/mL (≈ 31.5 µM) | > 32 µg/mL | 32 µg/mL (≈ 62.9 µM) | 4 µg/mL (≈ 7.87 µM) |  | 4 µg/mL (≈ 7.87 µM) | > 32 µg/mL |  | 
13 | CSCC(=O)N[C@@H]1C(=O)N2C(C(=O)O)=C(Sc3ccccc3CSC(=N)NC(=N)N)CS[C@H]12 [Cmpd 126, (7R)-7-[(methylthioacetyl)amino]-3-(2-(N-amidino)isothiouroniummethylphenylthio)-3-cephem-4-carboxylate, inner salt] | 16 µg/mL | > 32 µg/mL |  | 1 µg/mL | 0.125 µg/mL | 2 µg/mL | > 32 µg/mL | 0.125 µg/mL | 
14 | N=C(N)SCCc1ccccc1SC1=C(C(=O)O)N2C(=O)[C@@H](NC(=O)Cc3ccccc3)[C@H]2SC1 [Cmpd 100, (7R)-7-[(Phenylacetyl)amino]-3-(2-(2-isothiouronium)ethylphenylthio)-3-cephem-4-carboxylate, inner salt] | 8 µg/mL | > 32 µg/mL | 16 µg/mL | 1 µg/mL |  | 4 µg/mL | > 32 µg/mL |  | < 0.06 µg/mL
15 | N=C(N)SCc1ccccc1SC1=C(C(=O)O)N2C(=O)[C@@H](NC(=O)/C(=N\O)c3csc(N)n3)[C@H]2SC1 [Cmpd 129, (7R)-7-[(Z)-2-(Aminothiazol-4-yl)-2-(hydroxyimino)acetamido]-3-(2-isothiouroniummethylphenylthio)-3-cephem-4-carboxylate, inner salt] | 8 µg/mL | 2 µg/mL | 16 µg/mL | 0.25 µg/mL | ≤ 0.06 µg/mL |  | > 32 µg/mL |  | ≤ 0.06 µg/mL
